Source: PMC3722118, “Hellebrin and its aglycone form hellebrigenin display similar in vitro growth inhibitory effects in cancer cells and binding profiles to the alpha subunits of the Na^+/K^+-ATPase” (Molecular Cancer, 2013)
Like-named read-outs stand apart in the source and are kept apart here.

Columns and labels:
A549 NSCLC cells = experiment: MTT colorimetric in vitro growth inhibition assay; format: cell-based, human; settings: read-out: IC50 (nM) A549
From the text: (§1) The histological types and origins of the eight human cancer cell lines that were used for the MTT colorimetric assay are detailed in the legend of Table 1. Two mouse cancer cell lines were also used, the CT26.WT colon cancer cell line (ATCC code CRL-2638) and the B16F10 melanoma cell line (ATCC code CRL-6475). Both cell lines were obtained from the American Type Culture Collection (ATCC, Manassas, VA). A control cell line (human NHDF fibroblasts) was obtained from PromoCell (code c-12300; Heidelberg, Germany). The cell lines detailed in Figure 2A are a generous gift from the National Cancer Institute (NCI, Bethesda, USA) to Steven Karlish’s lab.
(§2) The cancer cells were cultured in RPMI (Lonza, Verviers, Belgium) medium supplemented with 10% heat-inactivated fetal calf serum (Lonza). All culture media were supplemented with 4 mM glutamine, 100 μg/mL gentamicin, 200 U/mL penicillin and 200 μg/mL streptomycin (Lonza). The NHDF fibroblasts were cultured in Lonza medium cc3132 KT FGM-2 BulletKit.
(§3) The overall growth level of the human cancer cell lines was determined using a colorimetric MTT (3-(4,5-dimethylthiazol-2yl)-2,5-diphenyltetrazolium bromide, Sigma, Belgium) assay as detailed previously. Briefly, this test measures the number of metabolically active (thus living) cells that are able to transform the yellow MTT into the blue formazan dye via a mitochondrial reduction involving succinate dehydrogenase. The amount of formazan obtained at the end of the experiment (measured by spectrophotometry) is directly proportional to the number of living cells. The determination of the optical density in the control compared to the treated cells therefore enables quantitative measurements of the effects of compounds on the growth of normal as well as cancer cells in vitro.
(§4) Each experimental condition was performed in six replicates.

Hs683 glioma cells = experiment: MTT colorimetric in vitro growth inhibition assay; format: cell-based, human; settings: read-out: IC50 (nM) Hs683
From the text: as §1, §2, §3, §4

[1] = tested on: MCF-7 breast cancer cells; experiment: MTT colorimetric in vitro growth inhibition assay; format: cell-based, human; settings: read-out: IC50 (nM) MCF-7
From the text: as §1, §2, §3, §4

HT-29 colon cancer cells = experiment: MTT colorimetric in vitro growth inhibition assay; format: cell-based, human; settings: read-out: IC50 (nM) HT-29
From the text: as §1, §2, §3, §4

SKMEL-28 melanoma cells = experiment: MTT colorimetric in vitro growth inhibition assay; format: cell-based, human; settings: read-out: IC50 (nM) SKMEL-28
From the text: as §1, §2, §3, §4

U373 glioma cells = experiment: MTT colorimetric in vitro growth inhibition assay; format: cell-based, human; settings: read-out: IC50 (nM) U373
From the text: as §1, §2, §3, §4

T98G glioma cells = experiment: MTT colorimetric in vitro growth inhibition assay; format: cell-based, human; settings: read-out: IC50 (nM) T98G
From the text: as §1, §2, §3, §4

[2] = tested on: PC-3 prostate cancer cells; experiment: MTT colorimetric in vitro growth inhibition assay; format: cell-based, human; settings: read-out: IC50 (nM) PC-3
From the text: as §1, §2, §3, §4

[3] = tested on: human cancer cells (A549, U373, Hs683, T98G, MCF-7, SKMEL-28, PC-3, HT-29); experiment: MTT growth inhibition, mean over the eight human cancer cell lines; format: cell-based; settings: 72 h, read-out: IC50 (nM) Mean ± SEM
From the text: as §1, §2, §3, §4

human α2β1 NaK complex = molecular target: T1, human α2β1 NaK complex (Homo sapiens, UniProt P50993); settings: ref Katz et al. [5], cited from earlier work; for Kd: 3H-ouabain displacement, read-out: Affinity (nM) α-2 (KD ± SEM); for Selectivity α-1 / α-2: ratio of KD α-1 to KD α-2
T1 construct: made in house; host or cells: Pichia pastoris strain SMD1165 (membranes)

human α3β1 NaK complex = molecular target: T2, human α3β1 NaK complex (Homo sapiens, UniProt P13637); settings: ref Katz et al. [5], cited from earlier work; for Kd: 3H-ouabain displacement, read-out: Affinity (nM) α-3 (KD ± SEM); for Selectivity α-1 / α-3: ratio of KD α-1 to KD α-3
T2 construct: made in house; host or cells: Pichia pastoris strain SMD1165 (membranes)

human α1β1 NaK complex = molecular target: T3, human α1β1 NaK complex (Homo sapiens, UniProt P05023); settings: 3H-ouabain displacement; ref Katz et al. [5]; read-out: Affinity (nM) α-1 (KD ± SEM); cited from earlier work
T3 construct: made in house; host or cells: Pichia pastoris strain SMD1165 (membranes)

[4] = three days of culture, * three independent experiments, ** one experiment, six replicates

SMILES: C[C@H]1O[C@@H](O[C@H]2[C@@H](O)C[C@H](O[C@H]3[C@@H](O)C[C@H](O[C@H]4CC[C@@]5(C)[C@H](CC[C@@H]6[C@@H]5CC[C@]5(C)[C@@H](C7=CC(=O)OC7)[C@@H](O)C[C@]65O)C4)O[C@@H]3C)O[C@@H]2C)C[C@H](O)[C@@H]1O [Gitoxin]
- IC50 (A549 NSCLC cells; Homo sapiens, A549, 72 h): 68 nM
- IC50 (Hs683 glioma cells; Homo sapiens, Hs 683, 72 h): 79 nM
- IC50 ([1]; Homo sapiens, MCF7, 72 h): 828 nM
- IC50 (HT-29 colon cancer cells; Homo sapiens, HT-29, 72 h): 352 nM
- IC50 (SKMEL-28 melanoma cells; Homo sapiens, SK-MEL-28, 72 h): 679 nM
- IC50 (U373 glioma cells; Homo sapiens, U373 MG, 72 h): 351 nM
- IC50 (T98G glioma cells; Homo sapiens, T98G, 72 h): 174 nM
- IC50 ([2]; Homo sapiens, 72 h): 361 nM
- IC50 ([3]; Homo sapiens): 362 ± 96 nM
- Kd (human α2β1 NaK complex): 85 ± 3 nM
- Selectivity α-1 / α-2 (human α2β1 NaK complex): 1.5
- Kd (human α3β1 NaK complex): 108 ± 17 nM
- Selectivity α-1 / α-3 (human α3β1 NaK complex): 1.1
- Kd (human α1β1 NaK complex): 123 ± 8 nM

SMILES: C[C@@H]1O[C@@H](O[C@H]2CC[C@@]3(C)[C@@H](CC[C@@H]4[C@@H]3CC[C@]3(C)[C@@H](C5=CC(=O)OC5)CC[C@]43O)C2)[C@H](O)[C@H](O)[C@H]1O [Uzarigenin-rhamnoside]
- IC50 (A549 NSCLC cells; Homo sapiens, A549, 72 h, three days of culture, * three independent experiments, ** one experiment, six replicates): 45 nM
- IC50 (Hs683 glioma cells; Homo sapiens, Hs 683, 72 h, three days of culture, * three independent experiments, ** one experiment, six replicates): 38 nM
- IC50 ([1]; Homo sapiens, MCF7, 72 h, three days of culture, * three independent experiments, ** one experiment, six replicates): 469 nM
- IC50 (HT-29 colon cancer cells; Homo sapiens, HT-29, 72 h, three days of culture, * three independent experiments, ** one experiment, six replicates): 41 nM
- IC50 (SKMEL-28 melanoma cells; Homo sapiens, SK-MEL-28, 72 h, three days of culture, * three independent experiments, ** one experiment, six replicates): 222 nM
- IC50 (U373 glioma cells; Homo sapiens, U373 MG, 72 h, three days of culture, * three independent experiments, ** one experiment, six replicates): 247 nM
- IC50 (T98G glioma cells; Homo sapiens, T98G, 72 h, three days of culture, * three independent experiments, ** one experiment, six replicates): 38 nM
- IC50 ([2]; Homo sapiens, 72 h, three days of culture, * three independent experiments, ** one experiment, six replicates): 77 nM
- IC50 ([3]; mean over eight human cancer cell lines, three days of culture): 147 ± 55 nM
- Kd (human α2β1 NaK complex): 96 ± 7 nM
- Selectivity α-1 / α-2 (human α2β1 NaK complex): 0.9
- Kd (human α3β1 NaK complex): 122 ± 9 nM
- Selectivity α-1 / α-3 (human α3β1 NaK complex): 0.7
- Kd (human α1β1 NaK complex): 90 ± 20 nM

SMILES: C[C@]12CC[C@H](O)C[C@@H]1CC[C@@H]1[C@@H]2CC[C@]2(C)[C@@H](C3=CC(=O)OC3)CC[C@]12O [Uzarigenin]
- IC50 (A549 NSCLC cells; [4]): 3170 nM
- IC50 (Hs683 glioma cells; [4]): 2250 nM
- IC50 [1, 4]: > 10000 nM
- IC50 (HT-29 colon cancer cells; [4]): 6440 nM
- IC50 (SKMEL-28 melanoma cells; [4]): > 10000 nM
- IC50 (U373 glioma cells; [4]): 7920 nM
- IC50 (T98G glioma cells; [4]): 5140 nM
- IC50 [2, 4]: 6280 nM
- Kd (human α2β1 NaK complex): 883 ± 56 nM
- Selectivity α-1 / α-2 (human α2β1 NaK complex): 1.3
- Kd (human α3β1 NaK complex): 1280 nM
- Selectivity α-1 / α-3 (human α3β1 NaK complex): 0.9
- Kd (human α1β1 NaK complex): 1100 nM
